Data published in patent US12281308B2, “Inhibition of protein kinases to treat Friedreich ataxia” (University of Massachusetts, priority 2018, dated 2025).

Tests used:
ROCK1 = assay: qRT-PCR analysis monitoring ROCK1 expression (shRNA knockdown) in FRDA (GM23404) iPSCs; type: cell-based, human; details: FRDA (GM23404) iPSCs expressing the shRNA
From the text: (§1) FIGS. 4A-E. Identification of ROCK2 as a protein kinase that mediates repression of the mutant FXN gene. (A) qRT-PCR analysis monitoring ROCK1 and ROCK2 expression in FRDA (GM23404) iPSCs expressing the two ROCK1 shRNAs used in the experiments shown in FIGS. 1-3 (hereafter called ROCK1-1 and ROCK1-2). […] (B) qRT-PCR analysis monitoring knockdown efficiencies of selective ROCK1 (ROCK1-3) and ROCK2 shRNAs.
(§2) Of the 8 new FXN-RFs that we identified, we are particularly enthusiastic about ROCK1, a serine-threonine kinase and major effector of the small GTPase RhoA (Schofield and Bernard, Crit Rev Biochem Mol Biol, 2013, 48 (4): 301-316. ROCK1 phosphory lates a variety of substrates, some of which can affect cell signaling pathways, such as PI3K/AKT (Ruth et al., J Invest Dermatol, 2006, 126 (4): 862-868), and transcription factors, such as NF-kB (Shimizu et al., Mol Hum Reprod, 2007, 13 (3): 181-187) and Runx2 (Huang et al., Exp Ther Med, 2018, 15 (5): 4457-4464). In addition to ROCK1, mammalian cells express another ROCK isoform encoded by a distinct gene, ROCK2. […] ROCK1 and ROCK2 share ˜65% overall amino acid identity and 92% identity in their kinase domains, with 100% identity within their ATP-binding pockets (Nakagawa et al., FEBS Lett, 1996, 392 (2): 189-193; Takahashi et al., Genomics, 1999, 55 (2): 235-237). […] Thus, both ROCK1 and ROCK2 are protein kinase FXN-RFs.

ROCK2 = assay: qRT-PCR analysis monitoring ROCK2 expression (shRNA knockdown) in FRDA (GM23404) iPSCs; type: cell-based, human; details: FRDA (GM23404) iPSCs expressing the shRNA
From the text: as §1, §2

mutant FXN gene = assay: Massively parallel short-read sequencing (RNA-seq) of FXN transcript levels in FRDA neurons; type: cell-based, human; details: vs DMSO, Illumina platform
FRDA neurons = assay: Mitochondrial oxygen consumption rate (Agilent Seahorse XF Analyzer) in FRDA neurons; type: cell-based, human; details: small molecule ROCK1/2 inhibitor
From the text: (§3) FIGS. 3A-D. Inhibition of protein kinase FXN-RFs can ameliorate characteristic mitochondrial defects of FRDA post-mitotic neurons and cardiomyocytes. (A, B) Quantification of flow cytometry analysis of normal and FRDA neurons (A) or normal and FRDA CMCs (B) expressing an FXN-RF shRNA and stained with MitoSOX. (C, D) Analysis of the mitochondrial oxygen consumption rate in normal and FRDA neurons (C) or normal and FRDA CMCs (D) expressing an FXN-RF shRNA. […] (C, D) Analysis of the mitochondrial oxygen consumption rate in FRDA neurons (C) or FRDA CMCs (D) treated with a small molecule ROCK1/2 inhibitor. (E, F) Immunoblot analysis showing levels of mitochondrial proteins ACO and ISCU in FRDA neurons (E) or FRDA CMCs (F) treated with fasudil (1 μM), KD025 (1 μM), or ripasudil (0.5 μM). […] We next asked whether FXN-RF inhibition could ameliorate two characteristic mitochondrial defects of FRDA neurons and cardiomyocytes: increased levels of reactive oxygen species (ROS) and decreased oxygen consumption. In the first set of experiments, FRDA neurons and cardiomyocytes expressing a protein kinase FXN-RF shRNA were stained with MitoSOX (an indicator of mitochondrial superoxide levels and mitochondrial ROS production) followed by flow cytometry analysis. As expected. FRDA neurons and cardiomyocytes had increased levels of mitochondrial ROS production compared to normal neurons and cardiomyocytes (FIGS. 3A, B). […] In the second set of experiments, we measured mitochondrial oxygen consumption rate, which is related to ATP production, using an Agilent Seahorse XF Analyzer. As expected, mitochondrial oxygen consumption rate in FRDA neurons and cardiomyocytes was ˜60% of the level observed in normal neurons and cardiomyocytes (FIGS. 3C, D).

FRDA cardiomyocytes = assay: Mitochondrial oxygen consumption rate (Agilent Seahorse XF Analyzer) in FRDA cardiomyocytes; type: cell-based, human; details: small molecule ROCK1/2 inhibitor
From the text: as §3

ACO2 and ISCU [1] = assay: Immunoblot analysis of mitochondrial Fe-S proteins in FRDA neurons; type: cell-based, human; details: fasudil 1 μM, KD025 1 μM, ripasudil 0.5 μM
ACO2 and ISCU [2] = assay: Immunoblot analysis of mitochondrial Fe-S proteins in FRDA cardiomyocytes; type: cell-based, human; details: fasudil 1 μM, KD025 1 μM, ripasudil 0.5 μM
ROCK1/2 = details: literature; cited from earlier work

Molecule	ROCK1 expression (knockdown) (ROCK1)	ROCK2 expression (knockdown) (ROCK2)	FXN transcript levels (RNA-seq) (mutant FXN gene)	mitochondrial oxygen consumption rate (FRDA neurons)	mitochondrial oxygen consumption rate (FRDA cardiomyocytes)	levels of ACO2 (ACO2 and ISCU [1])	levels of ISCU (ACO2 and ISCU [1])	levels of ACO2 (ACO2 and ISCU [2])	levels of ISCU (ACO2 and ISCU [2])	oral activity (ROCK1/2)	tolerability / adverse effects (ROCK1/2)
ROCK1-2: ROCK1 shRNA (2), SEQ ID NO: 12; knocks down both ROCK1 and ROCK2 (CCGGGCATTCCAAGATGATCGTTATCTCGAGATAACGATCATCTTGGAATGCTTTTTG)	knocked down both ROCK1 and ROCK2	knocked down both ROCK1 and ROCK2									
ROCK1-1: ROCK1 shRNA (1), SEQ ID NO: 11; knocks down both ROCK1 and ROCK2 (CCGGCGGGTTGTTCAGATTGAGAAACTCGAGTTTCTCAATCTGAACAACCCGTTTTTG)	knocked down both ROCK1 and ROCK2	knocked down both ROCK1 and ROCK2									
O=S(=O)(c1cccc2cnccc12)N1CCCNCC1 [fasudil, 1-(5-isoquinolinesulfonyl)-homopiperazine]			Upregulation of the mutant FXN gene	increased mitochondrial oxygen consumption rate	increased mitochondrial oxygen consumption rate	increased levels of ACO2 and ISCU comparable to that observed in normal neurons and cardiomyocytes	increased levels of ACO2 and ISCU comparable to that observed in normal neurons and cardiomyocytes	increased levels of ACO2 and ISCU comparable to that observed in normal neurons and cardiomyocytes	increased levels of ACO2 and ISCU comparable to that observed in normal neurons and cardiomyocytes	orally active	well tolerated without adverse effects
CC(C)NC(=O)COc1cccc(-c2nc(Nc3ccc4[nH]ncc4c3)c3ccccc3n2)c1 [KD025]			Upregulation of the mutant FXN gene			increased levels of ACO2 and ISCU comparable to that observed in normal neurons and cardiomyocytes	increased levels of ACO2 and ISCU comparable to that observed in normal neurons and cardiomyocytes	increased levels of ACO2 and ISCU comparable to that observed in normal neurons and cardiomyocytes	increased levels of ACO2 and ISCU comparable to that observed in normal neurons and cardiomyocytes		
C[C@@H](N)[C@H]1CC[C@H](C(=O)Nc2ccncc2)CC1.Cl.Cl [Y27632, (+)-(R)-trans-4-(1-aminoethyl)-N-(4-pyridyl)cyclohexanecarboxamide dihydrochloride]				increased mitochondrial oxygen consumption rate	increased mitochondrial oxygen consumption rate						
ROCK1-3: selective ROCK1 shRNA (3), SEQ ID NO: 13 (CCGGGCACCAGTTGTACCCGATTTACTCGAGTAAATCGGGTACAACTGGTGCTTTTTG)	knocked down ROCK1	knocked down ROCK1 but not ROCK2									
ROCK2 shRNA: selective ROCK2 shRNA, SEQ ID NO: 14 (CCGGGCACCAGTTGTACCCGATTTACTCGAGTAAATCGGGTACAACTGGTGCTTTTTG)	knocked down ROCK2 but not ROCK1	knocked down ROCK2									
C[C@H]1CNCCCN1S(=O)(=O)c1cccc2cncc(F)c12 [ripasudil, 4-fluoro-5-[[(2S)-2-methyl-1,4-diazepan-1-yl]sulfonyl]isoquinoline]				increased mitochondrial oxygen consumption rate	increased mitochondrial oxygen consumption rate	increased levels of ACO2 and ISCU comparable to that observed in normal neurons and cardiomyocytes	increased levels of ACO2 and ISCU comparable to that observed in normal neurons and cardiomyocytes	increased levels of ACO2 and ISCU comparable to that observed in normal neurons and cardiomyocytes	increased levels of ACO2 and ISCU comparable to that observed in normal neurons and cardiomyocytes	orally active	well tolerated without adverse effects
